The series relates to plasma metabolites. To be noted: rat, in vivo.

Structures can show the parent of a compound that is named as a salt. Marks after values point to notes of the source that are not given here.

Take `Nc1ccccc1Cl` [2-Chloroaniline]: the “3,4-Dihydroxyphenylalanine (DOPA), ratio versus control” value worked out at 0.76; the “3,4-Dihydroxyphenylglycol (DOPEG), ratio versus control” value is 0.87; the “3-Hydroxyindole, ratio versus control” value is recorded as 1.40; the “3-Indoxylsulfate, ratio versus control” value came to 1.68. The “3-Methoxytyrosine, ratio versus control” value turned out to be 1.48; the “Cytosine, ratio versus control” value came out at 1.41; the “Ketoleucine, ratio versus control” value turned out to be 0.60; the “Ribal, ratio versus control” value is 1.24. Moreover, the “Serotonin (5-HT), ratio versus control” value stood at 2.64 and the “biomarkers of table 12a and/or 12b (early indicators of blood anemia) altered as early as” value (“biomarkers of table 12a and/or 12b” for short) was found to be 7 days.
Regarding `Nc1ccc(Cl)c([N+](=O)[O-])c1` [4-Chloro-3 nitroaniline], the “3-Hydroxyindole, ratio versus control” value is 1.25; the “3-Indoxylsulfate, ratio versus control” value worked out at 1.34; the “3-Methoxytyrosine, ratio versus control” value came to 1.90; the “Cytosine, ratio versus control” value was determined as 1.75. Besides, the “Ribal, ratio versus control” value was determined as 1.89 and the “Serotonin (5-HT), ratio versus control” value came out at 9.50.
Regarding `Nc1ccc(Cl)c([N+](=O)[O-])c1` [4-Chloro-3-nitroaniline], the “3,4-Dihydroxyphenylalanine (DOPA), ratio versus control” value worked out at 0.93; the “3,4-Dihydroxyphenylglycol (DOPEG), ratio versus control” value worked out at 0.53; the “Ketoleucine, ratio versus control” value amounted to 0.61; the “biomarkers of table 12a and/or 12b” value amounted to 7 days.
In the case of `COc1cccc2c1C(=O)c1c(O)c3c(c(O)c1C2=O)C[C@@](O)(C(=O)CO)C[C@@H]3O[C@H]1C[C@H](N)[C@H](O)[C@H](C)O1` [Adriamycin hydrochloride], the “3-Hydroxybutyrate, plasma, ratio vs control” value is recorded as 0.66 *; the “18-Hydroxy-11-deoxycorticosterone, plasma, ratio vs control” value is on record as 0.44 *; the “Choline plasmalogen No 02, plasma, ratio vs control” value is listed as 1.18 *; the “Citrate, plasma, ratio vs control” value turned out to be 0.86. Further, the “Ketoleucine, plasma, ratio vs control” value is recorded as 0.69 *; the “Lignoceric acid (C24:0), plasma, ratio vs control” value (“Lignoceric acid … ratio vs control” for short) is given as 2.04 *; the “Taurine, plasma, ratio vs control” value is on record as 1.39 *; the “Tricosanoic acid (C23:0), plasma, ratio vs control” value (“Tricosanoic acid … ratio vs control” for short) is recorded as 2.14 *.
In the case of `Nc1ccccc1` [Aniline], the “3,4-Dihydroxyphenylalanine (DOPA), ratio versus control” value is 0.81; the “3,4-Dihydroxyphenylglycol (DOPEG), ratio versus control” value was 0.84; the “3-Hydroxyindole, ratio versus control” value is 1.61; the “3-Indoxylsulfate, ratio versus control” value was found to be 1.64. Further, the “3-Methoxytyrosine, ratio versus control” value is recorded as 1.35; the “Cytosine, ratio versus control” value came out at 1.62; the “Ketoleucine, ratio versus control” value is 0.94; the “Ribal, ratio versus control” value is listed as 1.66. Further, the “biomarkers of table 12a and/or 12b” value was determined as 7 days.
In the case of `N.N.O=C([O-])C1(C(=O)[O-])CCC1.[Pt+2]` [Carboplatin], the “3-Hydroxybutyrate, plasma, ratio vs control” value is 0.74 *; the “4-Hydroxyphenylpyruvate, plasma, ratio vs control” value is on record as 0.39 *; the “14-Methylhexadecanoic acid, plasma, ratio vs control” value is listed as 0.72 *; the “21-Hydroxyprogesterone (11-Deoxycorticosterone), plasma, ratio vs control” value is 0.09 *. In addition, the “Ascorbic acid, plasma, ratio vs control” value is reported as 0.84 *; the “Choline plasmalogen (C18, C20:4), plasma, ratio vs control” value is listed as 0.89 *; the “Corticosterone, plasma, ratio vs control” value is given as 0.31 *; the “Fructose-6-phosphate, plasma, ratio vs control” value was 1.74 *. Also, the “Glucose-6-phosphate, plasma, ratio vs control” value is 2.2 *; the “Histidine, plasma, ratio vs control” value was 1.17 *; the “Indole-3-lactic acid, plasma, ratio vs control” value is listed as 1.13 *; the “Ornithine, plasma, ratio vs control” value was 1.11 *. Further, the “Phenylalanine, plasma, ratio vs control” value was 1.2 *; the “Phosphate (inorganic and organic phosphates), plasma, ratio vs control” value was 1.57 *; the “Phosphatidylcholine (C18:0, C18:2), plasma, ratio vs control” value is 1.22 *; the “Progesterone, plasma, ratio vs control” value was 0.49*. Further, the “Taurine, plasma, ratio vs control” value is recorded as 1.47 *; the “Threonic acid, plasma, ratio vs control” value is on record as 1.51 *; the “Tryptophan, plasma, ratio vs control” value is 1.17 *.
Turning to `O=P1(N(CCCl)CCCl)NCCCO1` (stereo not drawn) [Cyclophosphamide monohydrate], the “3-Hydroxybutyrate, plasma, ratio vs control” value was 0.75 *; the “18-Hydroxy-11-deoxycorticosterone, plasma, ratio vs control” value is recorded as 0.16 *; the “Choline plasmalogen No 02, plasma, ratio vs control” value was 1.13 *; the “Citrate, plasma, ratio vs control” value was 0.78 *. Also, the “Isoleucine, plasma, ratio vs control” value is reported as 1.23 *; the “Ketoleucine, plasma, ratio vs control” value is reported as 0.88 *; the “Leucine, plasma, ratio vs control” value was 1.33 *; the “Lignoceric acid … ratio vs control” value was 1.29 *. Also, the “Taurine, plasma, ratio vs control” value is 1.21 *; the “Tricosanoic acid … ratio vs control” value was 1.44 *; the “Valine, plasma, ratio vs control” value is 1.25 *.
As to `Nc1ccn([C@@H]2O[C@H](CO)[C@@H](O)[C@@H]2O)c(=O)n1` [Cytarabin], the “3-Hydroxybutyrate, plasma, ratio vs control” value is recorded as 0.53 *; the “18-Hydroxy-11-deoxycorticosterone, plasma, ratio vs control” value was 0.13 *; the “Choline plasmalogen No 02, plasma, ratio vs control” value is listed as 1.11 *; the “Citrate, plasma, ratio vs control” value is reported as 0.81 *. Besides, the “Isoleucine, plasma, ratio vs control” value was 1.1 *; the “Ketoleucine, plasma, ratio vs control” value is 0.75 *; the “Leucine, plasma, ratio vs control” value is on record as 1.12 *; the “Lignoceric acid … ratio vs control” value is 1.31 *. The “Taurine, plasma, ratio vs control” value is listed as 1.27 *; the “Tricosanoic acid … ratio vs control” value turned out to be 1.3; the “Valine, plasma, ratio vs control” value is 1.1 *.
As to `C[C@H]1C[C@@H]2[C@H]([C@@H](O)C[C@@]3(C)[C@H]2CC[C@]3(O)C(=O)CO)[C@@]2(C)C=CC(=O)C=C12` [Methylprednisolone], the “18-Hydroxy-11-deoxycorticosterone, ratio versus control” value is on record as 0.15 *; the “Aspartate, ratio versus control” value is given as 1.37 *; the “Cholesterolester No 01, ratio versus control” value is 1.08 *; the “Glutamate, ratio versus control” value is listed as 1.11 *. Also, the “Glycerol-3-phosphate, polar fraction, ratio versus control” value was 1.4 *; the “Ketoleucine, ratio versus control” value is listed as 0.75 *; the “Pyruvate, ratio versus control” value is reported as 0.65 *.
Take `C=CC[C@@H]1/C=C(\C)C[C@H](C)C[C@H](OC)[C@H]2O[C@@](O)(C(=O)C(=O)N3CCCC[C@H]3C(=O)O[C@H](/C(C)=C/[C@@H]3CC[C@@H](O)[C@H](OC)C3)[C@H](C)[C@@H](O)CC1=O)[C@H](C)C[C@@H]2OC` [Tacrolimus]: the “18-Hydroxy-11-deoxycorticosterone, ratio versus control” value is 0.48 *; the “Aspartate, ratio versus control” value is on record as 1.42 *; the “Cholesterolester No 01, ratio versus control” value was 1.05 *; the “Glutamate, ratio versus control” value is 1.29 *. The “Glycerol-3-phosphate, polar fraction, ratio versus control” value is listed as 1.54 *; the “Ketoleucine, ratio versus control” value is recorded as 0.85 *; the “Pyruvate, ratio versus control” value is on record as 0.77 *.
Lead acetate trihydrate: the “Cholesterolester No 01, plasma, ratio vs control” value was 1.28 *; the “Glucose, plasma, ratio vs control” value came out at 0.91; the “Phosphatidylcholine (C16:0, C18:2), plasma, ratio vs control” value was 1.06 *; the “Sphingomyelin (d18:2, C18:0), plasma, ratio vs control” value was 1.09 *. The “TAG (C18:1, C18:2), plasma, ratio vs control” value was 1.33 *; the “TAG (C18:2, C18:2), plasma, ratio vs control” value was 1.48 *; the “TAG No 01, plasma, ratio vs control” value was 1.5 *.
